Source: patent US20240423984A1, “COMBINATION THERAPIES OF KRAS G12D INHIBITORS WITH SHP-2 INHIBITORS” (MIRATI THERAPEUTICS, INC., priority 2021, published 2024)

Legend:
Format in all cases: in vivo, nude/nude mice
AsPC-1 cells = assay: AsPC-1 pancreatic cancer xenograft tumor volume; settings: for Average Tumor Volumes: AsPC-1 tumor bearing mice
Procedure: (§1) Immunocompromised nude/nude mice are inoculated in the right hind flank with cells harboring a KRas G12D mutation. When tumor volumes reach between 200-400 mm^3 in size, the mice are divided into four to five groups of 5 mice each. The first group is administered vehicle only. […] The fourth group is administered the single agent dose of the KRas G12D inhibitor using the twice daily for 2 sequential days followed by 5 days off schedule in combination with the single agent dose of the SHP-2 inhibitor. The treatment period varies from cell line to cell line but typically is between 15-28-days. Tumor volumes are measured using a caliper every two three days and tumor volumes are calculated by the formula: […].
(§2) 20 to 25 nude/nude mice per study were inoculated in the right hind limb with 5×10^6 LS180 cells, GP2D cells, Panc 02.03 cells, or AsPC-1 cells. When tumor volumes reached ˜200 mm^3-400 mm3 (study day 0) 5 mice in each of the groups were administered i.p. vehicle only (10% captisol in 50 mM citrate buffer pH 5.0), 30 mg/kg of Kras G12) inhibitor MRTX1133 (10% captisol in 50 mM citrate buffer, pH 5.0) either on the twice daily schedule or the twice daily for 2 consecutive days followed by 5 days off schedule, 10 mg/kg twice daily of the TNO-155 (0.5% methylcellulose and 0.1% Tween 80 in water) SHP2 inhibitor or 30 mg/kg once daily of the RMC-4550 (10% captisol in 50 mM citrate buffer pH 5.0) SHP2 inhibitor, or 30 mg/kg of Kras G12D inhibitor on either schedule and either TNO-155 or RMC-4550. Tumor volumes, measured at pre-specified days, for the five mice per group were averaged and are reported for LS180, GP2D, Panc 02.03, and AsPC-1 in Tables 2, 3, 4 and 5, respectively.
Experimental Procedures. 20 nude/nude mice were inoculated with AsPC-1 cells in the right hind flank. When the tumors reached ˜200 mm^3 four treatment groups were established with five mice per group.

GP2D cells = assay: GP2D colon cancer xenograft tumor volume; settings: for Average Tumor Volumes: GP2D TGI-38 tumor bearing mice
Procedure: as §1, §2
20 nude/nude mice were inoculated with GP2D cells in the right hind flank. When the tumors reached ˜300 mm^3 four treatment groups were established with five mice per group.

Panc 02.03 cells = assay: Panc 02.03 pancreatic cancer xenograft tumor volume; settings: for Average Tumor Volumes: Panc 02.03 tumor bearing mice
Procedure: as §1, §2
Experimental Procedures. 25 nude/nude mice were inoculated with Panc 02.03 cells in the right hind flank. When the tumors reached ˜300 mm^3 four treatment groups were established with five mice per group.

LS180 cells = assay: LS180 colon cancer xenograft tumor volume; settings: for Average Tumor Volumes: LS180 tumor bearing mice, TNO155 10 mg/kg BID Daily
Procedure: as §1, §2
25 nude/nude mice were inoculated with LS180 cells in the right hind flank. When the tumors reached ˜250 mm^3 five treatment groups were established with five mice per group.

[1] = MRTX1133 30 mg/kg BID Daily, Study Day 1
[2] = TNO155 10 mg/kg BID Daily, Study Day 1

Compound: C#Cc1c(F)ccc2cc(O)cc(-c3ncc4c(N5C[C@H]6CC[C@@H](C5)N6)nc(OC[C@@]56CCCN5C[C@H](F)C6)nc4c3F)c12 [MRTX1133, 4-(4-((1R,5S)-3,8-diazabicyclo[3.2.1]octan-3-yl)-8-fluoro-2-(((2R,7aS)-2-fluorohexahydro-1H-pyrrolizin-7a-yl)methoxy)pyrido[4,3-d]pyrimidin-7-yl)-5-ethynyl-6-fluoronaphthalen-2-ol]
- tumor regression (AsPC-1 cells; AsPC-1, MRTX1133 30 mg/kg BID daily, single agent, Day 23): −28%
- Average Tumor Volumes (AsPC-1 cells; [1]): 193.378 mm^3
- Average Tumor Volumes (AsPC-1 cells; MRTX1133 30 mg/kg BID Daily, Study Day 6): 168.124 mm^3
- Average Tumor Volumes (AsPC-1 cells; MRTX1133 30 mg/kg BID Daily, Study Day 9): 146.75 mm^3
- Average Tumor Volumes (AsPC-1 cells; MRTX1133 30 mg/kg BID Daily, Study Day 13): 143.612 mm^3
- Average Tumor Volumes (AsPC-1 cells; MRTX1133 30 mg/kg BID Daily, Study Day 16): 120.916 mm^3
- Average Tumor Volumes (AsPC-1 cells; MRTX1133 30 mg/kg BID Daily, Study Day 20): 119.264 mm^3
- Average Tumor Volumes (AsPC-1 cells; MRTX1133 30 mg/kg BID Daily, Study Day 23): 139.296 mm^3
- Average Tumor Volumes (GP2D cells; MRTX1133 30 mg/kg BID Daily, Study Day 31): 333.196 mm^3
- tumor regression (Panc 02.03 cells; Panc 02.03, MRTX1133 30 mg/kg BID, daily administration, single agent, Day 22): −33%
- Average Tumor Volumes (Panc 02.03 cells; [1]): 329.056 mm^3
- Average Tumor Volumes (Panc 02.03 cells; MRTX1133 30 mg/kg BID Daily, Study Day 4): 282.836 mm^3
- Average Tumor Volumes (Panc 02.03 cells; MRTX1133 30 mg/kg BID Daily, Study Day 8): 208.15 mm^3
- Average Tumor Volumes (Panc 02.03 cells; MRTX1133 30 mg/kg BID Daily, Study Day 11): 189.782 mm^3
- Average Tumor Volumes (Panc 02.03 cells; MRTX1133 30 mg/kg BID Daily, Study Day 15): 205.992 mm^3
- Average Tumor Volumes (Panc 02.03 cells; MRTX1133 30 mg/kg BID Daily, Study Day 18): 227.806 mm^3
- Average Tumor Volumes (Panc 02.03 cells; MRTX1133 30 mg/kg BID Daily, Study Day 22): 220.912 mm^3

Compound: Cc1nc(N2CCC3(CC2)CO[C@@H](C)[C@H]3N)c(CO)nc1-c1cccc(Cl)c1Cl [RMC-4550, (3-((3S,4S)-4-amino-3-methyl-2-oxa-8-azaspiro[4.5]decan-8-yl)-6-(2,3-dichlorophenyl)-5-methylpyrazin-2-yl)methanol]
- Average Tumor Volumes (GP2D cells; RMC-4550 30 mg/kg Once Daily, Study Day 1): 300.014 mm^3
- Average Tumor Volumes (GP2D cells; RMC-4550 30 mg/kg Once Daily, Study Day 7): 353.148 mm^3
- Average Tumor Volumes (GP2D cells; RMC-4550 30 mg/kg Once Daily, Study Day 10): 398.576 mm^3
- Average Tumor Volumes (GP2D cells; RMC-4550 30 mg/kg Once Daily, Study Day 14): 497.714 mm^3
- Average Tumor Volumes (GP2D cells; RMC-4550 30 mg/kg Once Daily, Study Day 17): 530.072 mm^3
- Average Tumor Volumes (GP2D cells; RMC-4550 30 mg/kg Once Daily, Study Day 21): 567.882 mm^3
- Average Tumor Volumes (GP2D cells; RMC-4550 30 mg/kg Once Daily, Study Day 26): 685.836 mm^3
- Average Tumor Volumes (GP2D cells; RMC-4550 30 mg/kg Once Daily, Study Day 28): 807.148 mm^3
- Average Tumor Volumes (GP2D cells; RMC-4550 30 mg/kg Once Daily, Study Day 31): 970.626 mm^3
- Average Tumor Volumes (GP2D cells; RMC-4550 30 mg/kg Once Daily, Study Day 35): 1027.032 mm^3
- tumor growth inhibition (GP2D cells; GP2D, RMC-4550 30 mg/kg QD, single agent, Day 35): 56%

Compound: C[C@@H]1OCC2(CCN(c3cnc(Sc4ccnc(N)c4Cl)c(N)n3)CC2)[C@@H]1N [TNO155]
- tumor growth inhibition (AsPC-1 cells; AsPC-1, TNO155 10 mg/kg BID daily, single agent, Day 23): 0%
- Average Tumor Volumes (AsPC-1 cells; [2]): 192.408 mm^3
- Average Tumor Volumes (AsPC-1 cells; TNO155 10 mg/kg BID Daily, Study Day 6): 262.654 mm^3
- Average Tumor Volumes (AsPC-1 cells; TNO155 10 mg/kg BID Daily, Study Day 9): 263.966 mm^3
- Average Tumor Volumes (AsPC-1 cells; TNO155 10 mg/kg BID Daily, Study Day 13): 301.71 mm^3
- Average Tumor Volumes (AsPC-1 cells; TNO155 10 mg/kg BID Daily, Study Day 16): 317.812 mm^3
- Average Tumor Volumes (AsPC-1 cells; TNO155 10 mg/kg BID Daily, Study Day 20): 360.412 mm^3
- Average Tumor Volumes (AsPC-1 cells; TNO155 10 mg/kg BID Daily, Study Day 23): 456.218 mm^3
- tumor growth inhibition (LS180 cells; LS180, TNO155 10 mg/kg BID daily, single agent, Day 15): 48%
- Average Tumor Volumes (LS180 cells; Study Day 1): 272.732 mm^3
- Average Tumor Volumes (LS180 cells; Study Day 4): 568.234 mm^3
- Average Tumor Volumes (LS180 cells; Study Day 8): 888.474 mm^3
- Average Tumor Volumes (LS180 cells; Study Day 11): 1009.462 mm^3
- Average Tumor Volumes (LS180 cells; Study Day 15): 1155.8525 mm^3
- tumor growth inhibition (Panc 02.03 cells; Panc 02.03, TNO155 10 mg/kg BID daily, single agent, Day 22): 58%
- Average Tumor Volumes (Panc 02.03 cells; [2]): 330.644 mm^3
- Average Tumor Volumes (Panc 02.03 cells; TNO155 10 mg/kg BID Daily, Study Day 4): 365.57 mm^3
- Average Tumor Volumes (Panc 02.03 cells; TNO155 10 mg/kg BID Daily, Study Day 8): 469.4 mm^3
- Average Tumor Volumes (Panc 02.03 cells; TNO155 10 mg/kg BID Daily, Study Day 11): 522.856 mm^3
- Average Tumor Volumes (Panc 02.03 cells; TNO155 10 mg/kg BID Daily, Study Day 15): 571.16 mm^3
- Average Tumor Volumes (Panc 02.03 cells; TNO155 10 mg/kg BID Daily, Study Day 18): 622.47 mm^3
- Average Tumor Volumes (Panc 02.03 cells; TNO155 10 mg/kg BID Daily, Study Day 22): 657.502 mm^3
